Laboratory results taken from PubChem BioAssay (NCI).
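1) Cells in 96-well plates. 2) Compound, 48 h, 5 concentrations. 3) Linear interpolation between surrounding doses. 4) Unreached endpoint = highest concentration. Here, GI50 denotes the concentration required for 50% inhibition of growth. TGI marks complete inhibition of growth.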

What was measured:
Assay in all cases: NCI anticancer screen, dose series, 48 h
[1] = tested on: CAKI-1 renal
[2] = tested on: A498 renal
[3] = tested on: T-47D breast
[4] = tested on: IGROV1 ovarian
[5] = tested on: HOP-92 NSCLC
[6] = tested on: SNB-19 CNS
[7] = tested on: RPMI-8226 leukemia
[8] = tested on: HOP-62 NSCLC
[9] = tested on: DU-145 prostate
[10] = tested on: NCI-H23 lung
[11] = tested on: NCI-H226 lung
[12] = tested on: 786-0 renal
[13] = tested on: ACHN renal
[14] = tested on: MDA-MB-468 breast
[15] = tested on: EKVX NSCLC
[16] = tested on: UACC-62 melanoma
[17] = tested on: NCI-H522 lung
[18] = tested on: HL-60(TB) leukemia
[19] = tested on: HT29 colon
[20] = tested on: SK-MEL-2 melanoma
[21] = tested on: PC-3 prostate
[22] = tested on: COLO 205 colon
[23] = tested on: M14 melanoma
[24] = tested on: OVCAR-4 ovarian
[25] = tested on: TK-10 renal
[26] = tested on: CCRF-CEM leukemia
[27] = tested on: SNB-75 CNS
[28] = tested on: MOLT-4 leukemia
[29] = tested on: NCI-H460 lung
[30] = tested on: SF-295 CNS
[31] = tested on: MALME-3M melanoma
[32] = tested on: MDA-MB-435
[33] = tested on: HCT-15 colon
[34] = tested on: RXF 393 renal
[35] = tested on: SW-620 colon
[36] = tested on: UO-31 renal
[37] = tested on: KM12 colon
[38] = tested on: BT-549 breast
[39] = tested on: HS 578T breast
[40] = tested on: SK-MEL-28 melanoma
[41] = tested on: SF-268 CNS
[42] = tested on: UACC-257 melanoma
[43] = tested on: SK-MEL-5 melanoma
[44] = tested on: U251 CNS
[45] = tested on: HCC-2998 colon
[46] = tested on: HCT-116 colon
[47] = tested on: SF-539 CNS
[48] = tested on: K-562 leukemia
[49] = tested on: SR leukemia
[50] = tested on: OVCAR-8 ovarian
[51] = tested on: LOX IMVI melanoma
[52] = tested on: MDA-MB-231 breast
[53] = tested on: OVCAR-3 ovarian
[54] = tested on: SN12C renal
[55] = tested on: A549 NSCLC
[56] = tested on: MCF7 breast
[57] = tested on: SK-OV-3 ovarian
[58] = tested on: OVCAR-5 ovarian

COc1cccc2nc(Nc3ccc(F)c(NC(=O)c4ccc(CN5CCN(C)CC5)c(C(F)(F)F)c4)c3)ccc12
GI50 [1]: 11.5 µM | TGI [1]: 24.2 µM | GI50 [2]: 17 µM | TGI [2]: 32.2 µM | GI50 [3]: 14.8 µM | TGI [3]: 31.4 µM | GI50 [4]: 14.5 µM | TGI [4]: 29 µM | GI50 [5]: 6.64 µM | TGI [5]: 21.6 µM | GI50 [6]: 17.2 µM | TGI [6]: 32.8 µM | GI50 [7]: 9.3 µM | TGI [7]: 27.1 µM | GI50 [8]: 14.5 µM | TGI [8]: 28 µM | GI50 [9]: 12.9 µM | TGI [9]: 25.6 µM | GI50 [10]: 15.5 µM | TGI [10]: 29.6 µM | GI50 [11]: 11.1 µM | TGI [11]: 24.7 µM | GI50 [12]: 12.5 µM | TGI [12]: 26.4 µM | GI50 [13]: 16.5 µM | TGI [13]: 34.9 µM | GI50 [14]: 4.79 µM | TGI [14]: 18.1 µM | GI50 [15]: 14.7 µM | TGI [15]: 29.1 µM | GI50 [16]: 16.2 µM | TGI [16]: 30.9 µM | GI50 [17]: 16 µM | TGI [17]: 30.2 µM | GI50 [18]: 6.52 µM | TGI [18]: 25.4 µM | GI50 [19]: 3.61 µM | TGI [19]: 13.9 µM | GI50 [20]: 16.1 µM | TGI [20]: 29.9 µM | GI50 [21]: 12 µM | TGI [21]: 28.7 µM | GI50 [22]: 17.2 µM | TGI [22]: 31.9 µM | GI50 [23]: 13.1 µM | TGI [23]: 27.5 µM | GI50 [24]: 13.9 µM | TGI [24]: 28.9 µM | GI50 [25]: 16.4 µM | TGI [25]: 30.2 µM | GI50 [26]: 9.71 µM | TGI [26]: 25.6 µM | GI50 [27]: 9.08 µM | TGI [27]: 21.4 µM | GI50 [28]: 4.1 µM | TGI [28]: 18.4 µM | GI50 [29]: 15.9 µM | TGI [29]: 33.5 µM | GI50 [30]: 17.1 µM | TGI [30]: 32.2 µM | GI50 [31]: 11.7 µM | TGI [31]: 24.1 µM | GI50 [32]: 15.1 µM | TGI [32]: 28.3 µM | GI50 [33]: 13.4 µM | TGI [33]: 28.4 µM | GI50 [34]: 3.71 µM | TGI [34]: 17.2 µM | GI50 [35]: 16.9 µM | TGI [35]: 30.9 µM | GI50 [36]: 12.6 µM | TGI [36]: 25.5 µM | GI50 [37]: 15.4 µM | TGI [37]: 29.6 µM | GI50 [38]: 10.5 µM | TGI [38]: 22.6 µM | GI50 [39]: 14.1 µM | TGI [39]: 39.9 µM | GI50 [40]: 15.3 µM | TGI [40]: 30.3 µM | GI50 [41]: 11.1 µM | TGI [41]: 27.1 µM | GI50 [42]: 16.3 µM | TGI [42]: 30.1 µM | GI50 [43]: 15.5 µM | TGI [43]: 28.9 µM | GI50 [44]: 13.4 µM | TGI [44]: 26.1 µM | GI50 [45]: 18.8 µM | TGI [45]: 33.2 µM | GI50 [46]: 8.75 µM | TGI [46]: 22.6 µM | GI50 [47]: 12.4 µM | TGI [47]: 25.5 µM | GI50 [48]: 3.59 µM | TGI [48]: 20.9 µM | GI50 [49]: 9.84 µM | TGI [49]: 28 µM | GI50 [50]: 15.8 µM | TGI [50]: 29.8 µM | GI50 [51]: 13.8 µM | TGI [51]: 27.3 µM | GI50 [52]: 12.1 µM | TGI [52]: 24.9 µM | GI50 [53]: 14.4 µM | TGI [53]: 28 µM | GI50 [54]: 13.4 µM | TGI [54]: 27.4 µM | GI50 [55]: 12.2 µM | TGI [55]: 24.6 µM | GI50 [56]: 12.3 µM | TGI [56]: 27.5 µM | GI50 [57]: 15.7 µM | TGI [57]: 29.8 µM | GI50 [58]: 16.1 µM | TGI [58]: 30.4 µM
